Key:
[1] = test system: human epidermal melanocytes; assay: Melanin content in human epidermal melanocytes; type: cell-based; details: 7 days
Experimental: Test materials were added to exponentially growing cultures and the experiment was terminated 7 days later.

[2] = Free radical scavenging activity (ABTS); type: biochemical; details: 0.06 mg/mL; expressed as % water control
Experimental: Free radical scavenging activity was tested of different experimental conditions expressed as % water control. The positive control, ascorbic acid (Ref. 5), reached the expected level of inhibitory activity technically validating the experiments.

Type I Collagen = assay: Output of ECM components in adult human dermal fibroblast culture model (Method E): type I collagen; type: cell-based; details: 10 ng/mL; day 7; corrected for cell numbers, % of water control
Experimental: (§1) Method E: Metabolism, Proliferation and Output of ECM Components in the Adult Human Dermal Fibroblast Culture Model. Test materials were dissolved in sterile cell culture medium at ×2 highest concentration tested and samples were added in triplicates to exponentially growing adult human dermal fibroblasts (aHDF; 7,000 cells/well of a 96 well plate; p.7 Cell Applications, San Diego, CA, cat. #106-05a; lot #3014). Cultures were maintained in DMEM/10% FBS. At the end of the experiments (day 7), macromolecules of interest were quantified either in the cell culture medium (decorin, type I collagen, type III collagen and hyaluronate) or on fixed cells (total insoluble proteins and elastin), by ELISA and sulforhodamine B, as indicated in Tables II-IV. Total insoluble (cytoskeletal) proteins were quantified to determine the effect of test materials on cell proliferation (cell numbers or cell #) according to the method described by Voigt et al., 2005. These values were also used to standardize decorin, type I collagen, type III collagen, elastin and hyaluronate output data to cell numbers, using the Equation 1: (Standardized Cell #)=[macromolecule of interest raw read out value]/cell number raw read out value] […]
(§2) This standardization was performed separately for each well. […] All colorimetric measurements were performed using Molecular Devices microplate reader MAX190 and SoftMax3.1.2PRO software. […]

Type III collagen = assay: Output of ECM components in adult human dermal fibroblast culture model (Method E): type III collagen; type: cell-based; details: 10 ng/mL; day 7; corrected for cell numbers, % of water control
Experimental: as §1, §2

decorin = assay: Output of ECM components in adult human dermal fibroblast culture model (Method E): decorin; type: cell-based; details: 10 ng/mL; day 7; corrected for cell numbers, % of water control
Experimental: as §1, §2

elastin = assay: Output of ECM components in adult human dermal fibroblast culture model (Method E): elastin; type: cell-based; details: 10 ng/mL; day 7; fixed cells; corrected for cell numbers, % of water control
Experimental: as §1, §2

hyaluronate = assay: Output of ECM components in adult human dermal fibroblast culture model (Method E): hyaluronate; type: cell-based; details: 10 ng/mL; day 7; corrected for cell numbers, % of water control
Experimental: as §1, §2

soluble decorin = assay: Soluble decorin in adult human dermal fibroblasts (Method F); type: cell-based; details: 10 ng/mL; day 7; standardized to cell numbers, % of water control
Experimental: (§3) Method F: Test materials were dissolved in sterile cell culture medium at x2 highest concentration tested and samples were added in triplicates to exponentially growing adult human dermal fibroblasts (7,000 cells/well of a 96 well plate; p.7 Cell Applications, San Diego, CA, cat. #106-05a; lot #3014). Cultures were maintained in DMEM/10%FBS. At the end of the experiment (day 7), decorin was quantified in the cell culture medium (soluble fraction) and on fixed cells (insoluble fraction) by ELISA. Total insoluble (cytoskeletal) proteins were quantified to determine the effect of test materials on cell proliferation (cell numbers or cell #) according to the method described by Voigt et al., 2005. These values were also used to standardize decorin output data to cell numbers, using Equation 1. This standardization was performed separately for each well. Each experimental condition and control was assayed at least in triplicates. The effect of test materials on mitochondrial metabolism was measured with the MTT assay, which measures the activity of mitochondrial dehydrogenases, such as succinate dehydrogenase, implicated in the respiratory electron transport chain in mitochondria (Berridge & Tan; 1993).

insoluble decorin = assay: Insoluble decorin in adult human dermal fibroblasts (Method F); type: cell-based; details: 10 ng/mL; day 7; standardized to cell numbers, % of water control
Experimental: as §3

**Q.** For `O=c1cc(CO)occ1O` [Ref. 4, Kojic acid], which Melanin cell number-adjusted ([1]; 50 ug/mL) is on record?
**A.** The Melanin cell number-adjusted was 103 % Control.

**Q.** And the Melanin cell number-adjusted ([1]; 200 ug/mL)?
**A.** The Melanin cell number-adjusted was 46 % Control.

**Q.** Which ABTS [2] does the source give for `O=C1O[C@H]([C@@H](O)CO)C(O)=C1O` [Ref. 5, ascorbic acid] here?
**A.** The ABTS was 0 % Control.

**Q.** Which results are given for basic fibroblast growth factor [bFGF]?
**A.** Type I Collagen (Type I Collagen): 67 % CTR; Type III collagen (Type III collagen): 87 % CTR; decorin (decorin): 57 % CTR; elastin (elastin): 62 % CTR; Hyaluronian (hyaluronate): 72 % CTR; Soluble decorin (soluble decorin): 67 % CTR; Insoluble decorin (insoluble decorin): 87 % CTR

Reference: US12059486B2, “Cosmetic compositions” (Rodan & Fields, LLC, priority 2021, dated 2024)
